For test [1], the target named is T1, KMT9 (Homo sapiens, UniProt Q9Y5N5).
T1 sequence (Q9Y5N5 1-214): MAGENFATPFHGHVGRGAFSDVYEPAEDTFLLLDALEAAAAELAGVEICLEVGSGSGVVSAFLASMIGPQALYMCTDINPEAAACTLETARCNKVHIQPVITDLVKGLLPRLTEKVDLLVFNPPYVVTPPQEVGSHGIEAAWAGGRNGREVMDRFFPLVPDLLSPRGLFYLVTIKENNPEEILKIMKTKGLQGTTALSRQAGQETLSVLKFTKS
T1 sequence (Q9UI30 1-120 isoform Q9UI30-2 partner): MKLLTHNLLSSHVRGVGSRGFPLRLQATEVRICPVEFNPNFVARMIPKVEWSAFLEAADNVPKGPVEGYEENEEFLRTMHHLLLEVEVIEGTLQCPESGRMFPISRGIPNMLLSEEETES
In words: Microscale thermophoresis (MST) KMT9 binding. The procedure, abridged:
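Kd from microscale thermophoresis: compound series against 20 nM His-KMT9 labelled via RED-Tris-NTA, buffer 25 mM HEPES (pH 7.5)/100 mM NaCl/1 mM DTT/0.05% Tween, 40% MST power, 100% LED. Reported as classes: A ≤10 nM, B >10–100 nM, C >100–1000 nM, D >1000 nM.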
Background: MST reads how a fluorescent partner responds to local heating, with and without ligand.

The target of test [2] is T1, KMT9. Kind of test: KMT9 thermal shift assay (SyproOrange). Format: binding. The conditions noted are these: 500 µM compound. The procedure, abridged: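 ΔTm versus DMSO-only control is reported in bins (>20 K, 15–20 K, 10–15 K, ≤10 K), using Tm from Boltzmann sigmoidal fits of SyproOrange melt curves. KMT9 with compound in pH 8.5 BTP buffer containing MgCl2 and DTT was preincubated at 25° C, then ramped 1° C per 15 s up to 95° C.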

In test [3] the target is T1, KMT9. In words: KMT9 methyltransferase inhibition assay, MTaseGlo luminescence (from entry 155). As to conditions: 100 nM KMT9, 5 μM ETF1, 1 μM SAM. Format: biochemical. Here is the method: For the compounds from entry 155 on in Table 1, the following procedure was used to determine IC50 values: The assay was carried out in white, opaque 384-well OptiPlates (PerkinElmer). For IC50 determination, a 2.5x substrate mix (final assay concentrations: 5 μM ETF1, 1 μM SAM and 1x MTaseGlo Reagent), a 2.5x KMT9 solution (final assay concentration 100 nM) and a 5x inhibitor stock 1:1 dilution series (concentration according to the desired range; dilution series was prepared in assay buffer containing 10% DMSO to obtain a final DMSO concentration of 2% in the assay) were prepared. 2 μL of 5x inhibitor stock and 4 μL of 2.5x KMT9 were pipetted, the plate was spun down at 700 rpm for 1 min using a Hettich UNIVERSAL 320 centrifuge and incubated at room temperature (around 25° C.) for 15 min. The reaction was initiated by adding 4 μL of 2.5x substrate mix, the plate was spun down as described before and incubated at 30° C. for 2 h. Afterwards, 10 μL of 2× MTaseGlo Detection solution was added, the plate was centrifuged as described above and incubated for 60 min at room temperature. Luminescence was measured using a PerkinElmer EnVision 2102 Multilabel Reader. Calculation of inhibition and data fitting was carried out as for entries 1-154. described above.
For the results of the methyltransferase inhibition assay shown as “Inhibition” in Table 1, “I” represents an IC50 less than 0.1 μM, “II” represents an IC50 equal or higher than 0.1 μM and less than 1 μM, “III” represents an IC50 equal or higher than 1 µM and less than 10 µM and “IV” represents an IC50 equal or higher than 10 µM

For test [4], the target named is T1, KMT9. Kind of test: KMT9 methyltransferase inhibition assay, 3H-SAM scintillation (entries 1-154). The conditions noted are these: entries 1-154: 3H-SAM assay, 25 nM KMT9, 5 μM ETF1. Format: biochemical. The procedure, abridged:
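Tritium transfer from SAM (0.3 μM 3H-SAM, 0.7 μM unlabelled, final) to 5 μM ETF1 fragment by 25 nM KMT9 was measured after 2 h at 30° C, pH 8.5. Precipitated peptide was collected on filters and scintillation counted; IC50 came from a four-parameter fit of inhibition normalised to controls.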

[5] abbreviates: microscale thermophoresis, His-tag labelled KMT9 (20 nM), read-out: MST.
Setting [6] is: ΔTm, 2 μM KMT9, 5X SO, read-out: Thermal shift.

Like-named read-outs stand apart in the source and are kept apart here.

As for `Nc1nc(Cl)nc2c1c(Br)cn2[C@@H]1CC(CNCCCNCCc2ccc(F)cc2)[C@@H](O)[C@H]1O` (mixture of isomers) [Compound 547, (1R,2S,3R)-3-(4-amino-5-bromo-2-chloro-7H-pyrrolo[2,3-d]pyrimidin-7-yl)-5-(((3-((4-fluorophenethyl)amino)propyl)amino)methyl)cyclopentane-1,2-diol], the Kd on KMT9 [1] (His-tag labelled KMT9 20 nM, read-out: MST (Kd)) is not above 10 nM. Moreover, the ΔTm at 500 µM at KMT9 [2] (2 μM KMT9, read-out: Thermal shift (ΔTm)) was more than 20 °C. Moreover, the IC50 at KMT9 [3] (MTaseGlo procedure (entries from 155), read-out: Inhibition (IC50)) is 100 to 1000 nM.
In the case of `O[C@@H]1[C@H](O)[C@@H](C2CCCN(CC3CC3)C2)C[C@H]1n1cc(-c2nc(Cc3ccccc3)cs2)c2cnc(Cl)nc21` (stereo partly drawn) [Compound 516, (1R,2S,3R,5R)-3-(5-(4-benzylthiazol-2-yl)-2-chloro-7H-pyrrolo[2,3-d]pyrimidin-7-yl)-5-(1-(cyclopropylmethyl)piperidin-3-yl)cyclopentane-1,2-diol], the Kd on KMT9 [1] (His-tag labelled KMT9 20 nM, Kd class, read-out: MST) lay within 100 to 1000 nM. Besides, the IC50 on KMT9 [3] (IC50 class, MTaseGlo procedure (entries from 155 on), read-out: Inhibition) is 1000 to 10000 nM.
Take `C=Cc1cn([C@@H]2C[C@H](CNCCCNCCc3ccccc3)[C@@H](O)[C@H]2O)c2ncncc12` [Compound 608, (1R,2S,3R,5R)-3-{5-ethenylpyrrolo[2,3-d]pyrimidin-7-yl}-5-[({3-[(2-phenylethyl)amino]propyl}amino)methyl]cyclopentane-1,2-diol]: the Kd on KMT9 [1] (setting [5]) lay within 100 to 1000 nM. Besides, the ΔTm at 500 µM on KMT9 [2] (setting [6]) is not above 10 °C. The compound further returned an IC50 on KMT9 [4] of more than 10 µM.
Take `CCc1cn([C@@H]2C[C@H](CNCCCNCCc3ccccc3)[C@@H](O)[C@H]2O)c2ncncc12` [Compound 609, (1R,2S,3R,5R)-3-{5-ethylpyrrolo[2,3-d]pyrimidin-7-yl}-5-[({3-[(2-phenylethyl)amino]propyl}amino)methyl]cyclopentane-1,2-diol]: the Kd at KMT9 [1] (setting [5]) is 100 to 1000 nM. For the same compound, the ΔTm at 500 µM at KMT9 [2] (setting [6]) is not above 10 °C. In addition, at KMT9 [4], the IC50 was more than 10 µM.
Consider `C=Cc1cn([C@@H]2C[C@H](CNCCCNCCc3ccccc3)[C@@H](O)[C@H]2O)c2ncnc(C)c12` [Compound 610, (1R,2S,3R,5R)-3-(4-Methyl-5-vinyl-7H-pyrrolo[2,3-d]pyrimidin-7-yl)-5-(((3-(phenethylamino)propyl)amino)methyl)cyclopentane-1,2-diol], for which the Kd on KMT9 [1] (setting [5]) was more than 1000 nM. Moreover, the ΔTm at 500 µM on KMT9 [2] (setting [6]) is not above 10 °C. The compound further displayed an IC50 against KMT9 [4] of more than 10 µM.
The matching figures for `CCc1cn([C@@H]2C[C@H](CNCCCNCCc3ccccc3)[C@@H](O)[C@H]2O)c2ncnc(C)c12` [Compound 611, (1R,2S,3R,5R)-3-(5-ethyl-4-methyl-7H-pyrrolo[2,3-d]pyrimidin-7-yl)-5-(((3-(phenethylamino)propyl)amino)methyl)cyclopentane-1,2-diol]: more than 1000 nM, not above 10 °C and more than 10 µM.
The matching figures for `C=Cc1cn([C@@H]2C[C@H](CNCCCNCCc3ccccc3)[C@@H](O)[C@H]2O)c2ncnc(Cl)c12` [Compound 612, (1R,2S,3R,5R)-3-{4-chloro-5-ethenylpyrrolo[2,3-d]pyrimidin-7-yl}-5-[{{3-[(2-phenylethyl)amino]propyl}amino)methyl]cyclopentane-1,2-diol]: more than 1000 nM, not above 10 °C and more than 10 µM.
For `O=S(=O)(c1ccccc1)n1ccc(-c2cn([C@@H]3C[C@H](CNCCCNCCc4ccccc4)[C@@H](O)[C@H]3O)c3ncncc23)n1` [Compound 614, (1S,2R,3R,5R)-3-(((3-(Phenethylamino)propyl)amino)methyl)-5-(5-(1-(phenylsulfonyl)-1H-pyrazol-3-yl)-7H-pyrrolo[2,3-d]pyrimidin-7-yl)cyclopentane-1,2-diol], on KMT9 [1] (setting [5]), the Kd fell in the range of 100 to 1000 nM. The ΔTm at 500 µM on KMT9 [2] (setting [6]) fell in the range of 10 to 15 °C. The IC50 on KMT9 [4] was in the range of 1 to 10 µM.
With `CNC(=O)[C@H]1C[C@@H](n2cc3c4c(ncnc42)NCCC3)[C@H](O)[C@@H]1O` [Compound 624, (1S,2R,3S,4R)-2,3-Dihydroxy-N-methyl-4-(6,7,8,9-tetrahydro-2H-2,3,5,6-tetraazabenzo[cd]azulen-2-yl)cyclopentane-1-carboxamide], the Kd on KMT9 [1] (setting [5]) was more than 1000 nM. At KMT9 [2] (setting [6]), the ΔTm at 500 µM was not above 10 °C. The compound also came in with an IC50 against KMT9 [4] of more than 10 µM.
Turning to `CN(C)C(=O)[C@H]1C[C@@H](n2cc3c4c(ncnc42)NCCC3)[C@H](O)[C@@H]1O` [Compound 625, (1S,2R,3S,4R)-2,3-Dihydroxy-N,N-dimethyl-4-(6,7,8,9-tetrahydro-2H-2,3,5,6-tetraazabenzo[cd]azulen-2-yl)cyclopentane-1-carboxamide], the Kd on KMT9 [1] (setting [5]) is more than 1000 nM. Besides, the ΔTm at 500 µM at KMT9 [2] (setting [6]) was not above 10 °C. The compound also yielded an IC50 against KMT9 [4] of more than 10 µM.
In the case of `NC[C@H]1C[C@@H](n2cc3c4c(ncnc42)NC(=O)CC3)[C@H](O)[C@@H]1O` [Compound 626, 2-((1R,2S,3R,4R)-4-(Aminomethyl)-2,3-dihydroxycyclopentyl)-2,6,8,9-tetrahydro-7H-2,3,5,6-tetraazabenzo[cd]azulen-7-one], the Kd at KMT9 [1] (setting [5]) was more than 1000 nM. In addition, the ΔTm at 500 µM on KMT9 [2] (setting [6]) is not above 10 °C. For the same compound, the IC50 against KMT9 [4] was more than 10 µM.
The matching figures for `O=C1CCc2cn([C@@H]3C[C@H](CNCCCNCCc4ccccc4)[C@@H](O)[C@H]3O)c3ncnc(c23)N1` [Compound 627, 2-((1R,2S,3R,4R)-2,3-dihydroxy-4-(((3-(phenethylamino)propyl)amino)methyl)cyclopentyl)-2,6,8,9-tetrahydro-7H-2,3,5,6-tetraazabenzo[cd]azulen-7-one]: 100 to 1000 nM, not above 10 °C and more than 10 µM.
The matching figures for `CC1CCNc2ncnc3c2c1cn3[C@@H]1C[C@H](CN)[C@@H](O)[C@H]1O` (stereo partly drawn) [Compound 629, (1S,2R,3R,5R)-3-(Aminomethyl)-5-(9-methyl-6,7,8,9-tetrahydro-2H-2,3,5,6-tetraazabenzo[cd]azulen-2-yl)cyclopentane-1,2-diol]: more than 1000 nM, not above 10 °C and more than 10 µM.
The matching figures for `NC[C@H]1C[C@@H](n2cc3c4c(ncnc42)NCCCC3)[C@H](O)[C@@H]1O` [Compound 630, (1S,2R,3R,5R)-3-(Aminomethyl)-5-(7,8,9,10-tetrahydro-2,3,5,6-tetraazacycloocta [cd]inden-2 (6H)-yl)cyclopentane-1,2-diol]: more than 1000 nM, not above 10 °C and more than 10 µM.
For `CCc1cn([C@@H]2C[C@H](CNCCCNCCc3ccccc3)[C@@H](O)[C@H]2O)c2ncnc(Cl)c12` [Compound 632, (1R,2S,3R,5R)-3-(4-chloro-5-ethyl-7H-pyrrolo[2,3-d]pyrimidin-7-yl)-5-(((3-(phenethylamino)propyl)amino)methyl)cyclopentane-1,2-diol], the Kd at KMT9 [1] (setting [5]) is more than 1000 nM. Moreover, at KMT9 [2] (setting [6]), the ΔTm at 500 µM was not above 10 °C. The compound further yielded an IC50 at KMT9 [4] of more than 10 µM.
`O[C@@H]1[C@@H](CNCCCNCCc2ccccc2)C[C@@H](n2cc(-c3[nH]ncc3Cl)c3cncnc32)[C@@H]1O` [Compound 633, (1R,2S,3R,5R)-3-(5-(4-Chloro-1H-pyrazol-5-yl)-7H-pyrrolo[2,3-d]pyrimidin-7-yl)-5-(((3-(phenethylamino)propyl)amino)methyl)cyclopentane-1,2-diol]: the Kd at KMT9 [1] (setting [5]) is more than 1000 nM. Also, the ΔTm at 500 µM on KMT9 [2] (setting [6]) was not above 10 °C. Moreover, the IC50 against KMT9 [4] was in the range of 1 to 10 µM.

The record behind these values is patent publication US20250188110A1, “SPECIFIC SMALL MOLECULE INHIBITORS THAT BLOCK KMT9 METHYLTRANSFERASE ACTIVITY AND FUNCTION” (ALBERT-LUDWIGS-UNIVERSITÄT FREIBURG, priority 2021, published 2025).
